Reference: PubChem BioAssay AID330 (DTP/NCI, 2004)
Values joined by “and” are separate entries in the source; they are usually repeats but may differ in a detail not shown here. Equal entries are not always repeated. Toxic doses and inconclusive results are not listed. Rule for the calls: active = survival T/C of 150% or more; inactive = T/C below 125% in these data.

System: P388 leukemia ip, CD2F1 mice, survival T/C
Assay: NCI In Vivo Anticancer Drug Screen. Data for tumor model P388 Leukemia (intraperitoneal) in CD2F1 (CDF1) mice
Conditions: endpoint: median survival time, higher = longer survival
Procedure, shortened: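 Mice carrying the transplanted tumor received test compound or vehicle. Survival was recorded in each group, and the value is the treated-group measurement divided by that of the vehicle-treated control group.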

[1] = dose: 3.13 mg/kg/injection, schedule: Q01DX009 (ip), vehicle: saline with Tween-80
[2] = dose: 50.0 mg/kg/injection, schedule: Q01DX005 (ip), vehicle: saline
[3] = dose: 100.0 mg/kg/injection, schedule: Q01DX005 (ip), vehicle: saline
[4] = dose: 200.0 mg/kg/injection, schedule: Q01DX005 (ip), vehicle: saline
[5] = dose: 60.0 mg/kg/injection, schedule: Q01DX005 (ip), vehicle: Klucel (hydroxypropylcellulose) (HPC)
[6] = dose: 120.0 mg/kg/injection, schedule: Q01DX005 (ip), vehicle: Klucel (hydroxypropylcellulose) (HPC)
[7] = dose: 240.0 mg/kg/injection, schedule: Q01DX005 (ip), vehicle: Klucel (hydroxypropylcellulose) (HPC)
[8] = dose: 100.0 mg/kg/injection, schedule: Q01DX009 (ip), vehicle: Klucel (hydroxypropylcellulose) (HPC)
[9] = dose: 200.0 mg/kg/injection, schedule: Q01DX009 (ip), vehicle: Klucel (hydroxypropylcellulose) (HPC)
[10] = dose: 400.0 mg/kg/injection, schedule: Q01DX009 (ip), vehicle: Klucel (hydroxypropylcellulose) (HPC)
[11] = dose: 100.0 mg/kg/injection, schedule: Q01DX001 (ip), vehicle: saline with Tween-80
[12] = dose: 200.0 mg/kg/injection, schedule: Q01DX001 (ip), vehicle: saline with Tween-80
[13] = dose: 400.0 mg/kg/injection, schedule: Q01DX001 (ip), vehicle: saline with Tween-80
[14] = dose: 50.0 mg/kg/injection, schedule: Q01DX005 (ip), vehicle: saline with Tween-80
[15] = dose: 100.0 mg/kg/injection, schedule: Q01DX005 (ip), vehicle: saline with Tween-80
[16] = dose: 200.0 mg/kg/injection, schedule: Q01DX005 (ip), vehicle: saline with Tween-80
[17] = dose: 200.0 mg/kg/injection, schedule: Q01DX009 (ip), vehicle: saline with Tween-80

Measured: T/C

N#CSCc1ccc(CSC#N)c(Cl)c1
inactive: dose: 1.56 mg/kg/injection, schedule: Q04DX003 (ip), vehicle: saline sonified 100 % of control | dose: 2.08 mg/kg/injection, schedule: Q01DX009 (ip), vehicle: saline with Tween-80 109 % of control | [1] 100 % of control | dose: 3.13 mg/kg/injection, schedule: Q04DX003 (ip), vehicle: saline sonified 104 % of control | dose: 4.69 mg/kg/injection, schedule: Q01DX009 (ip), vehicle: saline with Tween-80 118 % of control | dose: 6.25 mg/kg/injection, schedule: Q04DX003 (ip), vehicle: saline sonified 109 % of control

COc1cc2c(c3oc4c(O)cccc4c(=O)c13)CC(C(C)(O)CO)O2 (stereo not given)
inactive: dose: 3.5 mg/kg/injection, schedule: Q01DX005 (ip), vehicle: Klucel (hydroxypropylcellulose) (HPC) 105 % of control | dose: 7.0 mg/kg/injection, schedule: Q01DX005 (ip), vehicle: Klucel (hydroxypropylcellulose) (HPC) 96 % of control | dose: 14.0 mg/kg/injection, schedule: Q01DX005 (ip), vehicle: Klucel (hydroxypropylcellulose) (HPC) 96 % of control | dose: 28.0 mg/kg/injection, schedule: Q01DX005 (ip), vehicle: Klucel (hydroxypropylcellulose) (HPC) 92 % of control

CC(NC(=O)C(CCCCN)N(C(=O)OCc1ccccc1)C(=O)OCc1ccccc1)C(=O)O (stereo not given) (tested in a mixture with another compound)
inactive: dose: 50.0 mg/kg/injection, schedule: Q01DX005 (ip), vehicle: suspension in saline 111 % of control | dose: 100.0 mg/kg/injection, schedule: Q01DX005 (ip), vehicle: suspension in saline 111 % of control | dose: 200.0 mg/kg/injection, schedule: Q01DX005 (ip), vehicle: suspension in saline 110 % of control

CN(C)C[C@@H]1OCCOCCO[C@@H](CN(C)C)[C@H](CN(C)C)OCCOCCO[C@H]1CN(C)C
inactive: [2] 98 % of control | [3] 88 % of control | [4] 90 % of control

OCC1CCC(O)C=C2CCCC21 (stereo not given)
inactive: [5] 94 % of control | [6] 103 % of control | [7] 105 % of control

CC1(C)CC(O)(Cc2ccccc2)C(=O)c2ccccc21 (stereo not given)
inactive: dose: 25.0 mg/kg/injection, schedule: Q01DX009 (ip), vehicle: Klucel (hydroxypropylcellulose) (HPC) 96 % of control | dose: 50.0 mg/kg/injection, schedule: Q01DX009 (ip), vehicle: Klucel (hydroxypropylcellulose) (HPC) 95 % of control | [8] 98 % of control | [9] 98 % of control | [10] 86 % of control

OCC1c2ccc(Cl)cc2Nc2ccc(Cl)cc21 (stereo not given)
inactive: [11] 104 % of control | [12] 95 % of control | [13] 100 % of control

O=C1CSC(=Nc2ccccc2)N1c1ccc(-n2c(-c3ccc(N=Cc4ccc(Cl)cc4)cc3)nc3ccccc3c2=O)cc1
inactive: [5] 92 % of control

COc1cc2ccc3c[n+]4ccccc4cc3c2cc1OC
inactive: dose: 6.25 mg/kg/injection, schedule: Q01DX009 (ip), vehicle: Klucel (hydroxypropylcellulose) (HPC) 103 % of control | dose: 12.5 mg/kg/injection, schedule: Q01DX009 (ip), vehicle: Klucel (hydroxypropylcellulose) (HPC) 108 % of control

COC(=O)c1c(C(=O)Cc2cc3c(cc2CCN(C)C)OCO3)ccc(OC)c1OC
inactive: dose: 12.5 mg/kg/injection, schedule: Q01DX001 (ip), vehicle: saline + alcohol 99 % of control | dose: 25.0 mg/kg/injection, schedule: Q01DX001 (ip), vehicle: saline + alcohol 100 % of control | dose: 50.0 mg/kg/injection, schedule: Q01DX001 (ip), vehicle: saline + alcohol 101 % of control

CC(C)(O)C#C[Si](C)(C)C
inactive: [14] 98 % of control | [15] 103 % of control | [16] 94 % of control

N#CC1=CCc2ccccc2N1C(=O)Oc1ccccc1
inactive: dose: 60.0 mg/kg/injection, schedule: Q01DX005 (ip), vehicle: saline with Tween-80 97 % of control | dose: 120.0 mg/kg/injection, schedule: Q01DX005 (ip), vehicle: saline with Tween-80 88 % of control | dose: 240.0 mg/kg/injection, schedule: Q01DX005 (ip), vehicle: saline with Tween-80 88 % of control

CC(C)(F)c1nc2ncncc2[nH]c1=O
inactive: [11] 103 % of control | [12] 103 % of control | [13] 93 % of control

Cc1cc2nnn(C3OC(CO)C(O)C3O)c2cc1C (stereo not given)
inactive: dose: 50.0 mg/kg/injection, schedule: Q01DX005 (ip), vehicle: Klucel (hydroxypropylcellulose) (HPC) 105 % of control | dose: 100.0 mg/kg/injection, schedule: Q01DX005 (ip), vehicle: Klucel (hydroxypropylcellulose) (HPC) 107 % of control | dose: 200.0 mg/kg/injection, schedule: Q01DX005 (ip), vehicle: Klucel (hydroxypropylcellulose) (HPC) 104 % of control

c1ccc(Cn2ccnc2)nc1
inactive: dose: 50.0 mg/kg/injection, schedule: Q04DX003 (ip), vehicle: saline 103 % of control | dose: 100.0 mg/kg/injection, schedule: Q04DX003 (ip), vehicle: saline 100 % of control | dose: 200.0 mg/kg/injection, schedule: Q04DX003 (ip), vehicle: saline 101 % of control

Clc1ccc(N=C(SSC(Cl)(Cl)Cl)SSC(Cl)(Cl)Cl)cc1
inactive: [17] 114 % of control

NC(=O)NC(N)=S
inactive: dose: 25.0 mg/kg/injection, schedule: Q01DX009 (ip), vehicle: saline with Tween-80 100 % of control | dose: 50.0 mg/kg/injection, schedule: Q01DX009 (ip), vehicle: saline with Tween-80 105 % of control | dose: 100.0 mg/kg/injection, schedule: Q01DX009 (ip), vehicle: saline with Tween-80 99 % of control | [17] 98 % of control

O=C(Oc1ccc(Cl)cc1Cl)c1ccc([N+](=O)[O-])cc1
inactive: [8] 96 % of control | [9] 87 % of control | [10] 96 % of control

CCCNC(=O)c1ccccc1C(=O)NC1(C(=O)NCCC)CCCC1
inactive: [14] 97 % of control | [15] 96 % of control | [16] 96 % of control

Nc1nc(SCC(=O)O)[nH]c(=O)c1NS(=O)(=O)c1cccc([N+](=O)[O-])c1
inactive: [5] 96 % of control | [6] 93 % of control | [7] 93 % of control

CC(C)N1C(C)(C)C1(C)C#N (stereo not given)
inactive: dose: 60.0 mg/kg/injection, schedule: Q01DX005 (ip), vehicle: saline 100 % of control | dose: 120.0 mg/kg/injection, schedule: Q01DX005 (ip), vehicle: saline 104 % of control

CC(C)(C)c1cc(CCCCCCCC2(CCCCCCCc3cc(C(C)(C)C)cc(C(C)(C)C)c3)OC(COCCOCCOCCCC#N)C(COCCOCCOCCCC#N)O2)cc(C(C)(C)C)c1 (stereo not given)
inactive: dose: 25.0 mg/kg/injection, schedule: Q01DX005 (ip), vehicle: saline with Tween-80 97 % of control | [14] 95 % of control | [15] 113 % of control | [16] 100 % of control

ClC1=C(Cl)C2(Cl)C3C4CC(C5OC45)C3C1(Cl)C2(Cl)Cl (stereo not given)
inactive: [1] 104 % of control and 97 % of control | dose: 6.25 mg/kg/injection, schedule: Q01DX009 (ip), vehicle: saline with Tween-80 90 % of control and 97 % of control | dose: 12.5 mg/kg/injection, schedule: Q01DX009 (ip), vehicle: saline with Tween-80 86 % of control

CN1C(=O)C(O)(C2=C3OCOC3=CC(=O)C2=O)c2ccccc21 (stereo not given)
inactive: dose: 6.25 mg/kg/injection, schedule: Q01DX005 (ip), vehicle: saline 105 % of control | dose: 12.5 mg/kg/injection, schedule: Q01DX005 (ip), vehicle: saline 103 % of control | dose: 25.0 mg/kg/injection, schedule: Q01DX005 (ip), vehicle: saline 102 % of control

CN1c2c(C(=O)Nc3nccs3)nn(-c3ccccc3)c2-c2ccccc2S1(=O)=O
inactive: [2] 89 % of control | [3] 92 % of control | [4] 99 % of control

O=[N+]([O-])c1ccc(Sc2ncccn2)c([N+](=O)[O-])c1
inactive: dose: 50.0 mg/kg/injection, schedule: Q01DX009 (ip), vehicle: suspension in saline 103 % of control | dose: 100.0 mg/kg/injection, schedule: Q01DX009 (ip), vehicle: suspension in saline 88 % of control | dose: 200.0 mg/kg/injection, schedule: Q01DX009 (ip), vehicle: suspension in saline 91 % of control
